Read-outs that look alike come from different tables or passages of the source.
How the values were obtained:
[1] = system: Mycobacterium tuberculosis H37Rv; assay: Primary screen (Cycle 1): MIC, IC50, IC90 under aerobic conditions; assay type: cell-based
M. tuberculosis H37Rv = assay: Cycle 2 repeat of MIC, IC50, IC90 under aerobic conditions (lower starting concentrations); assay type: cell-based, Mycobacterium tuberculosis; details: Mycobacterium tuberculosis, revaluation
Mycobacterium avium = assay: MIC against nontuberculous mycobacteria (Alamar blue); assay type: cell-based; details: M. avium
Mycobacterium abscessus = assay: MIC, IC50, IC90 against nontuberculous mycobacteria (OD590); assay type: cell-based; details: M. abscessus
[2] = system: THP-1 cell line infected with Mtb; assay: Intracellular activity assay, luminescence; assay type: cell-based, Mycobacterium tuberculosis; details: Mycobacterium tuberculosis, Mtb-infected THP-1 cells, 72 h
Procedure: Since the overall efficacy of any anti TB drug will be improved by its ability to traffic into the macrophage phagosome containing replicating bacteria, we evaluated the intracellular activity of compounds[24]. This was measured by using THP-1 cell line infected with Mtb. Infected cells were exposed to compounds for 72 h and viable bacterial counts were measured using luminescence as a measure of intracellular growth.
Assay (Promega) which uses ATP as an indicator of cell viability. Relative luminescent units (RLU) were measured using a Biotek Synergy 4 plate reader. The dose response curve was fitted using the Levenberg–Marquardt algorithm. The IC50 was defined as the compound […]
Intracellular Activity Assay
The activity of compounds against intracellular bacteria was determined by measuring viability in infected THP-1 cell after 3 days in the presence of test compounds. Compounds were prepared as 10-point three-fold serial dilutions in DMSO. The highest concentration of […]
THP-1 cells were cultured in complete RPMI and differentiated into macrophage-like cells using 80 nM PMA overnight at 37°C, 5% CO2. THP-1 cells were infected with a luminescent strain of H37Rv (which constitutively expresses luxABCDE) at a multiplicity of infection of 1 and incubated overnight at 37°C, 5% CO2. Infected cells were recovered using Accutase/EDTA solution, washed twice with PBS to remove extracellular bacteria and seeded into assay pates. Compound dilutions were added to a final DMSO concentration of 0.5%.
Assay plates were incubated for 72 h at 37°C, 5% CO2. Each run included isoniazid as a control. Relative luminescent units (RLU) were measured using a Biotek Synergy 2 plate reader. The dose response curve was fitted using the Levenberg–Marquardt algorithm. The […]
inhibition of growth respectively.
3. Cycle 3 – Absorption, distribution, metabolism, excretion and toxicity (ADMET)
3.1. Plasma Protein Binding Assay
Compounds were added to human plasma at a fixed concentration of 5 µM. The mixture was dialyzed in a RED device (Rapid Equilibrium Dialysis, Pierce) against PBS and incubated on an orbital shaker for 4 h at 37 °C. Aliquots from plasma and PBS sides were collected; an equal volume of PBS was added to the plasma sample, and an equal volume of plasma was added to the PBS sample. Three volumes of methanol (containing the internal binding standard propranolol) was added to precipitate the proteins and release the compound.
Each compound was tested in duplicate. Samples were centrifuged, the supernatant was […]

[3] = Caco-2 permeability assay; details: human, Caco-2
Procedure: The Caco-2 cell layer permeability assay is widely used as a more predictive in vitro model of absorption through the intestinal epithelium. […] For B–A permeability, test compound was added to the basal side of the Caco-2 monolayer and the transport of the compound to the apical side monitored. The amount of compound present in each compartment was quantified by LC-MS/MS.
recovered and analyzed by LC-MS/MS.
3.2. Caco-2 Permeability Assay
feeding at 2-day intervals.
Each experiment included the
contained transport buffer at pH 7.4.
3.3. Cytochrome P450 Inhibition Assay
and was < 0.2%. Samples were run in duplicate. Compounds were incubated with human liver

CYP3A4 = target: T1, CYP3A4 (Homo sapiens, UniProt P08684); assay: Cytochrome P450 inhibition in human liver microsomes; assay type: in vitro ADME
T1 construct: Compounds were incubated with human liver; from tissue; host or cells: human liver microsomes

CYP2C9 = target: T2, CYP2C9 (Homo sapiens, UniProt P11712); assay: as above; assay type: in vitro ADME
T2 construct: Compounds were incubated with human liver; from tissue; host or cells: human liver microsomes

CYP2D6 = target: T3, CYP2D6 (Homo sapiens, UniProt P10635); assay: as above; assay type: in vitro ADME
T3 construct: Compounds were incubated with human liver; from tissue; host or cells: human liver microsomes

CYP2C8 = target: T4, CYP2C8 (Homo sapiens, UniProt P10632); assay: as above; assay type: in vitro ADME
T4 construct: Compounds were incubated with human liver; from tissue; host or cells: human liver microsomes
T4 sequence (P10632 1-490): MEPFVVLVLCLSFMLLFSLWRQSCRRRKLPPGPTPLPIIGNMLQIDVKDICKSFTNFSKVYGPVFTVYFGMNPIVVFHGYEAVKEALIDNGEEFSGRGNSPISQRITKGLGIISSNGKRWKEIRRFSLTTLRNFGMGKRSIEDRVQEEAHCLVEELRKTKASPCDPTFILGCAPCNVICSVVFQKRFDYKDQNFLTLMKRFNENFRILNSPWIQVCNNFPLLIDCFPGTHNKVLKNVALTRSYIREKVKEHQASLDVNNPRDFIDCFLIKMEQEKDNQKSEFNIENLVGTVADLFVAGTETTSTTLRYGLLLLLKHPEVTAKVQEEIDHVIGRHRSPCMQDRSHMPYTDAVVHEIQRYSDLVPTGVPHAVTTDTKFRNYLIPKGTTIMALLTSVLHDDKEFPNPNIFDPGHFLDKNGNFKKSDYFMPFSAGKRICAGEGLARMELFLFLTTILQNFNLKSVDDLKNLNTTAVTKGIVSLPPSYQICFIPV

CYP2C19 = target: T5, CYP2C19 (Homo sapiens, UniProt P33261); assay: as above; assay type: in vitro ADME
T5 construct: Compounds were incubated with human liver; from tissue; host or cells: human liver microsomes

in vitro = details: human
Description: The stability of compound is expressed as a function of time[41]^,[42]
3.4. In vitro Microsomal Stability Assay
compound to detect NADPH-free degradation. Verapamil and dextromethorphan were
included as control compounds.

[4] = Cytotoxicity, THP-1 cell viability (CellTiter-Glo); details: human
[5] = Mycobacterium tuberculosis, M. tuberculosis H37Rv, aerobic conditions, primary screen

T1 sequence (P08684 whole entry): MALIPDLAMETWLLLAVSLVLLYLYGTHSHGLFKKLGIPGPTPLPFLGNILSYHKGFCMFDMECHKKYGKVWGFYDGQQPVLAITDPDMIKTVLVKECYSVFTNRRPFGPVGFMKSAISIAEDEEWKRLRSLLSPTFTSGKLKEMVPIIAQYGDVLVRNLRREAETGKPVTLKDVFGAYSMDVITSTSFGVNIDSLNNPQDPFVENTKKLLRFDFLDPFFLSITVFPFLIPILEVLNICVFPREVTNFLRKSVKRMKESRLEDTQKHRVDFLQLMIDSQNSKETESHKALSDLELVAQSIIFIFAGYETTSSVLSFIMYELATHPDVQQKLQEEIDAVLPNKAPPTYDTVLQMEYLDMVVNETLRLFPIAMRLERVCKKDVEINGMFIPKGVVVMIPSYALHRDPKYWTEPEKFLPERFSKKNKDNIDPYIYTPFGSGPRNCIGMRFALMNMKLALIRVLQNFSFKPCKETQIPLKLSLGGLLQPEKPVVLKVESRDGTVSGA
T5 sequence (P33261 whole entry): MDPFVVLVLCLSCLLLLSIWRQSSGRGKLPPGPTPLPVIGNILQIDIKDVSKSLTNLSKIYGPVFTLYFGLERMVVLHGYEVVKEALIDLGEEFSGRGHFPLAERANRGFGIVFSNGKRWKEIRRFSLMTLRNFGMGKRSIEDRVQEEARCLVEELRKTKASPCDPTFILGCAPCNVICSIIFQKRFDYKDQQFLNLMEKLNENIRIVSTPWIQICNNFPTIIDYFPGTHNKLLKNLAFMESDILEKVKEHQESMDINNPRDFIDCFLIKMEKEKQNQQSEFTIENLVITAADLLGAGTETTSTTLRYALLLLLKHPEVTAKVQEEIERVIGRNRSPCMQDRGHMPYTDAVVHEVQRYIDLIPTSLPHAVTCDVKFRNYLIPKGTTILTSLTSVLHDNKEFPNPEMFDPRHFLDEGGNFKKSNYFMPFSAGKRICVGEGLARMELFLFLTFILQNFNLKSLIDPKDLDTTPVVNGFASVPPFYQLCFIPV
T3 sequence (P10635 whole entry): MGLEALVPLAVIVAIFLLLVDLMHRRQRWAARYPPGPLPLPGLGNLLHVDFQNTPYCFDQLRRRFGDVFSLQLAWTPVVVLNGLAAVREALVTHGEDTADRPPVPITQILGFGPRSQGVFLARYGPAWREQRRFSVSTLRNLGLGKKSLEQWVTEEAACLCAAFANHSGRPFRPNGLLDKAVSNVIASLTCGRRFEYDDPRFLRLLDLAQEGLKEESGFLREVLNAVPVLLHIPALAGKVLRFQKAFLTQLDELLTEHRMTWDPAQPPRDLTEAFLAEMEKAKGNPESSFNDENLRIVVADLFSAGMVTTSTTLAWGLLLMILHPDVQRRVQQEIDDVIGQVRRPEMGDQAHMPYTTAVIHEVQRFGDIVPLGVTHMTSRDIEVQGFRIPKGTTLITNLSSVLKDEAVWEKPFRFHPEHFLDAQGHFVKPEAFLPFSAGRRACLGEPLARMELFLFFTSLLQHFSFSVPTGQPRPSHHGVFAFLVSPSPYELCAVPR
T2 sequence (P11712 whole entry): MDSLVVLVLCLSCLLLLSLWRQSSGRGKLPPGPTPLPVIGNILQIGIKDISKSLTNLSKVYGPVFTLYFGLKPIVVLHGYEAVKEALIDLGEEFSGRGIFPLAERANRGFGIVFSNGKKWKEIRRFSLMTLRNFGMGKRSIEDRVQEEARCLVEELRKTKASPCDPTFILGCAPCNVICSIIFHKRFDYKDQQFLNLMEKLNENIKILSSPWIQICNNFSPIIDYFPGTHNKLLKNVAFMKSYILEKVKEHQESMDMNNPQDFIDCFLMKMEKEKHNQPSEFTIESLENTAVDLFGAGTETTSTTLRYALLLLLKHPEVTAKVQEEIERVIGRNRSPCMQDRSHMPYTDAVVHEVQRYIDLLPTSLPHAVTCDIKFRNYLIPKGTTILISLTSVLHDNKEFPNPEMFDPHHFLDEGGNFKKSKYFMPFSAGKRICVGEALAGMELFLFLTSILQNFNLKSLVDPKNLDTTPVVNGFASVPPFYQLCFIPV

CCOC(=O)c1cc(C(=O)c2ccc(Cl)cc2)n2ccc(-c3cc[n+](CC(=O)c4ccc(C)cc4)cc3)cc12 [Compound 6i]
MIC ([1]; M. tuberculosis H37Rv, aerobic conditions, primary screen): 8.0 µM | MIC ([1]; MIC value taken from the first MIC assay): 8 µM | IC50 [1, 5]: 7.2 µM | IC90 [1, 5]: 8.2 µM | MIC [1, 5]: 8 µM | IC50 (M. tuberculosis H37Rv; aerobic): 9.8 µM | IC90 (M. tuberculosis H37Rv; aerobic): 17 µM | MIC (M. tuberculosis H37Rv; repeated at lower starting concentrations, read-out: MIC aerobic condition): 16 µM | MIC (Mycobacterium avium): 50 µM | MIC (Mycobacterium avium; Mycobacterium avium): 50 µM | MIC (Mycobacterium abscessus): showed activity | IC50 (Mycobacterium abscessus; Mycobacteroides abscessus): 14 µM | IC90 (Mycobacterium abscessus; Mycobacteroides abscessus): 23 µM | MIC (Mycobacterium abscessus; Mycobacteroides abscessus, read-out: MIC): 25 µM | IC50 ([2]; read-out: IC50 intracell): 10 µM | IC90 ([2]; read-out: IC90 intracell): 48 µM | Papp B→A [3]: 1.3 ×10⁻⁶ cm/s | efflux ratio [3]: 1.7 | IC50 CYP3A4-Midazolam (CYP3A4; probe substrate midazolam): moderate inhibition | IC50 (CYP3A4; probe substrate midazolam, read-out: IC50 CYP3A4-Midazolam): 0.48 µM | IC50 CYP3A4-Testosterone (CYP3A4; probe substrate testosterone): high inhibition | IC50 (CYP3A4; probe substrate testosterone, read-out: IC50 CYP3A4-Testosterone): 0.081 µM | IC50 (CYP2C9): > 5 µM | IC50 (CYP2D6): > 5 µM | IC50 (CYP2C8): > 5 µM | IC50 (CYP2C19): > 5 µM | NADPH-dependent CLint (in vitro; s9): very highly cleared | microsomal CLint at 1 μM (in vitro; s9, NADPH-dependent CLint): 369 µL/min/mg | half-life at 1 μM (in vitro; s9, NADPH-dependent T1/2): 6.3 min | microsomal CLint at 1 μM (in vitro; s9, NADPH-free CLint): < 12.8 µL/min/mg | half-life at 1 μM (in vitro; s9, NADPH-free T1/2): > 180 min | IC50 at 3 days [4]: 3.8 µM

Reference: article PMC6021032, “Antimycobacterial activity of nitrogen heterocycles derivatives: 7-(pyridine-4-yl)-indolizine derivatives. Part VII^8–12” (Journal of Enzyme Inhibition and Medicinal Chemistry, 2017)
